Values joined by “and” are separate entries in the source; they are usually repeats but may differ in a detail not shown here. Equal values may be shown once. Marks after values point to notes of the source that are not given here.
Key:
[1] = test system: urate crystal induced synovitis of the stifle joint in dogs; test: Urate crystal induced synovitis of the stifle joint in dogs, force plate analysis; assay type: in vivo, dog; conditions: for Z peak force of the injected rear leg, percent of pre-values, Mean: six dogs
Text: Objective: The objective of this study is to evaluate the analgesic and anti-inflammatory effect of a single dose of COMPOUND A using a model of urate crystal induced synovitis of the stifle joint in dogs via kinetic gait analysis (force plate).
Animals: A total of six Beagle dogs (4 males and 2 females) aged between 2 and 9 years and weighing 13 to 15.8 kg are recruited for this study. The dogs are housed in groups of two in light and temperature controlled pens. Each dogs is offered 150-300 g dry pellet food once a day in the morning. Water is available ad libitum through nipple drinkers.
Acute synovitis model: In this study, acute but reversible arthritis is induced by intra-articular (left or right stifle joint) injection of a saline (NaCl 0.9%) suspension containing 15 mg of monosodium urate crystals.
Intra-articular injections: Dogs are sedated with medetomidine (40 microg/kg, i.v.). The left of right stifle joint is clipped and prepared aseptically for intrasynovial injection. A 20-gauge needle is inserted lateral to the patellar ligament and introduced into the articular space. To ensure correct placement of the needle, a small amount of synovial fluid is aspirated with an empty 2 ml syringe. Then, approximately 2 ml of the monosodium urate suspension is injected in the joint cavity through the previously placed needle. Sedation is then antagonized with injection of atipamezol (40 μg/kg, i.v.). Dogs are then brought back to their pens for approximately 3 hours. Usually, after this period, the lameness induced by the injection of the monosodium urate crystals suspension is developed to a point where the dogs become non-weight-bearing on the injected leg during standing, walking and trotting. If at this time the dog's lameness grade is not sufficient, the dogs are excluded from this part of the trial.
Treatments: According to the protocol, both treatments are administered via the oral route approximately 3 hours after the injection of the monosodium urate crystals suspension, and only to the dogs that developed a high-grade lameness. For part 1, half of the dogs are allocated to the COMPOUND A-treated group and the other dogs are allocated to the control group. For part 2, treatments are crossed, so that dogs that are treated with COMPOUND A in part 1 are administered the placebo treatment, and vice versa. The treatments are administered at the doses of 0 mg/kg (placebo) and 2 mg/kg. COMPOUND A is mixed to a placebo formulation (micro-emulsion vehicle without active ingredient) just before administration. The appropriate volumes based on the dogs' bodyweights are given per os with syringes. Thereafter, all syringes are rinsed with NaCl 0.9% and applied to the dogs. The control dogs receive 10 ml of the identical placebo formulation.
Force plate analysis: A biomechanical platform (OR6-6-1000, Advanced Mechanical Technologies Inc., Watertown, Mass.) that measures 3 dimensional forces and impulses is used for our study. The dogs are trotted over the force plate 1, 2, 3, 4 and 6 hours after administration of the treatments to obtain data of vertical forces and impulses of the affected limb. Baseline values included force plate data obtained the day before the induction of lameness and are set as 100% of the dog's capacity. In order to minimize the effect of inter-individual variation we choose to calculate and express the measured data as percentage of the baseline values. By use of a software (Acquire Software 7.20e, Robert Wells, Mich. State University, East Lansing, Mich.) installed with the force plate and a computer, the vertical peak force (ZpkF) is measured. All data are normalized to the bodyweight of the dogs. Data on other ground reaction forces (e.g. vertical impulse, braking and propulsion peak forces) are also recorded and stored but not analyzed. Data from 5 to 6 valid trials of the injected limb at a given measurement time point are averaged and expressed as percentage of the pre-values. […]

[2] = test system: collagen-induced arthritis in the rats; test: Collagen-induced arthritis in the rats, histological evaluation of hind paws; assay type: in vivo, rat; conditions: day 11
Protocol: Method: For this study, COMPOUND A and COX-inhibitor Diclofenac are dissolved in a solvent containing 5% of glucose (5 ml/kg). Compounds are given orally once a day. Female rats of the WAGxBUF/F1 crossbred strain (weight 130 g) are used. The animals are divided into several groups, one placebo group (N=8), and four treatment groups (each N=7-8). Treatment starts on peak of disease (day 0) and continues for 11 days. Swelling is assessed at regular time intervals by measuring the external thickness of the hind paws in the region of the metatarsals using a micro-caliper. Tissue samples for histological evaluation are obtained at the end of the in vivo experiment, 5 h after the last oral dose of COMPOUND A or placebo on day 11.
Hind paws from control arthritic rats (vehicle-treated), taken post-mortem at the end of day 11 of the treatment, obtained relatively high histological scorings compared to histological scores of animals treated with COMPOUND A (0.3, 1, 3 and 9 mg/kg) or Diclofenac (1 mg/kg).

[3] = Tolerability relative to effective dose in chronic disease models (general statement); assay type: in vivo; conditions: doses more than 10 times higher than the effective dose in chronic disease models

Structure (SMILES): COC1=Nc2cc(Cl)ccc2/C(=C/C(=O)O)c2sc(Cl)cc21 [COMPOUND A, [2,7-Dichloro-10-methoxy-3-thia-9-aza-benzo[f]azulen-(4Z)-ylidene]-acetic acid]
- Z peak force of the injected rear leg, percent of pre-values, individual dogs ([1]; 2 mg/kg p.o., T + 1 H): 0.0%
- Z peak force of the injected rear leg, percent of pre-values, Mean ([1]; 2 mg/kg p.o., T + 1 H): 0.0%
- Z peak force of the injected rear leg, percent of pre-values, individual dogs ([1]; 2 mg/kg p.o., T + 2 H): 0.0% (5×) and 65.8%
- Z peak force of the injected rear leg, percent of pre-values, Mean ([1]; 2 mg/kg p.o., T + 2 H): 11.0%
- Z peak force of the injected rear leg, percent of pre-values, individual dogs ([1]; 2 mg/kg p.o., T + 3 H): 86.7% and 93.8% and 71.9% and 79.1% and 0.0% (2×)
- Z peak force of the injected rear leg, percent of pre-values, Mean ([1]; 2 mg/kg p.o., T + 3 H): 55.2%
- Z peak force of the injected rear leg, percent of pre-values, individual dogs ([1]; 2 mg/kg p.o., T + 4 H): 80.9% and 87.1% and 103.1% and 82.5% and 58.2% and 0.0%
- Z peak force of the injected rear leg, percent of pre-values, Mean ([1]; 2 mg/kg p.o., T + 4 H): 68.6%
- Z peak force of the injected rear leg, percent of pre-values, individual dogs ([1]; 2 mg/kg p.o., T + 6 H): 78.5% and 106.1% and 87.7% and 85.2% and 83.7%
- Z peak force of the injected rear leg, percent of pre-values, Mean ([1]; 2 mg/kg p.o., T + 6 H): 91.2%
- Z peak force of the injected rear leg, percent of pre-values, individual dogs ([1]; Prevs (day before induction of lameness, set as 100%), 2 mg/kg p.o. group, dogs 519, 525, 652, 664, 2201, 2207): 100.0%
- Z peak force of the injected rear leg, percent of pre-values, Mean ([1]; Prevs (set as 100%), 2 mg/kg p.o. group): 100.0%
- Bone apposition, effect on histological score ([2]; 0.3 mg/kg/day p.o.): +4%
- Cartilage damage, effect on histological score ([2]; 0.3 mg/kg/day p.o.): −6%
- Infiltration of cells, effect on histological score ([2]; 0.3 mg/kg/day p.o.): +8%
- Loss of PG, effect on histological score ([2]; 0.3 mg/kg/day p.o.): +1%
- Bone apposition, effect on histological score ([2]; 1 mg/kg/day p.o.): −28%
- Cartilage damage, effect on histological score ([2]; 1 mg/kg/day p.o.): −24%
- Infiltration of cells, effect on histological score ([2]; 1 mg/kg/day p.o.): −7%
- Loss of PG, effect on histological score ([2]; 1 mg/kg/day p.o.): −13%
- Bone apposition, effect on histological score ([2]; 3 mg/kg/day p.o.): −35% *
- Cartilage damage, effect on histological score ([2]; 3 mg/kg/day p.o.): −40% *
- Infiltration of cells, effect on histological score ([2]; 3 mg/kg/day p.o.): −25%
- Loss of PG, effect on histological score ([2]; 3 mg/kg/day p.o.): −28% *
- Bone apposition, effect on histological score ([2]; 9 mg/kg/day p.o.): −51% **
- Cartilage damage, effect on histological score ([2]; 9 mg/kg/day p.o.): −56% ***
- Infiltration of cells, effect on histological score ([2]; 9 mg/kg/day p.o.): −34% **
- Loss of PG, effect on histological score ([2]; 9 mg/kg/day p.o.): −40% *
- tolerability [3]: very well tolerated
